In assay [1] the test system is Smad signaling pathway of TGFβRI. Briefly: Inhibition of Smad signaling pathway of TGFβRI (3TP-lux luciferase reporter in HepG2 cells). The class given is cell-based. The conditions noted are these: HepG2, 3TP-lux plasmid, 18 hours; for IC50: Homo sapiens. The protocol: The inhibition effect of the compounds of the present invention on Smad signaling pathway of TGFβRI was determined by the following in vitro test.
The inhibition effect of the compounds of the present invention on Smad signaling pathway of TGFβRI was determined by the following experimental method:
On a 96-well plate, 100 μL of HepG2 cell (TCHu 72, Cell Bank of Typical Culture Collection Committee of Chinese Academy of Sciences) was seeded on an EMEM medium containing 10% FBS (42360-099, Gibco) in each well. The seeding density is 2.5×10^4 cells/well. The cells were incubated overnight at 37° C., in 5% CO2. Each well was replaced with fresh EMEM medium containing 10% FBS. 0.1 μg of 3TP-lux plasmid (11767, Biovector Science Lab, Inc.) was transfected in each well. The cells were further incubated for 24 hours at 37° C., in 5% CO2. Each well was replaced with 90 μL of EMEM medium containing 0.5% FBS, then the cells were starved for 6 hours. The compounds were formulated as a 20 mM stock solution, which was diluted in gradient to a 400× concentration with 100% DMSO, and further 40-fold diluted with EMEM containing 0.5% FBS. The cell culture plate was taken out, then 10 μl of diluted compound or control (0.25% DMSO) was added to each well respectively. The plate was shaken gently, then incubated for 18 hours in an incubator at 37° C., in 5% CO2. Finally, 100 μl of detection reagent ONE-Glo™ Luciferase Assay (E6110, Promega) was added to each well, and the plate was placed in dark at room temperature for 10 minutes. The chemiluminescence signal values were measured with a Victor 3.0 (PerkinElmer). The IC50 values of the compounds were calculated using Graphpad Prism software based on each concentration of the compound and the corresponding signal value thereof.

A further assay relates to NIH3T3 cell. Briefly: Inhibition of NIH3T3 cell proliferation (CellTiter-Glo). To be noted: NIH3T3, 72 hours, 0.5% FBS; for IC50: Mus musculus. The class given is cell-based. The method, then: The inhibition effect of the compounds of the present invention on NIH3T3 cell proliferation was determined by the following in vitro test.
The inhibition effect of the compounds of the present invention on NIH3T3 cell proliferation was determined by the following experimental method:
On a 96-well white plate with transparent bottom (3903, Corning), 100 μL of NIH3T3 cell (GNM6, Cell Bank of Typical Culture Collection Committee of Chinese Academy of Sciences) was seeded in a DMEM medium containing 10% FBS (SH1-30243.01, GE) in each well. The seeding density is 2000 cells/well. The cells were incubated overnight at 37° C., in 5% CO2. After overnight incubation, each well was replaced with 90 μL of DMEM medium containing 0.5%0 FBS. 10 μl of a 3-fold gradient dilution of the compounds with DMEM medium containing 0.5% FBS was then added, and the plate was incubated for 72 hours in a cell incubator at 37° C., in 5% CO2. Finally, 50 μL of CellTiter-Glo (G7573, Promega) was added to each well. After incubation for 10 minutes at room temperature, the chemiluminescence signal values were measured with a Victor 3 microplate reader (PerkinElmer). The IC50 values of the compounds were calculated using Graphpad Prism software based on each concentration of the compound and the corresponding signal value thereof.

The next assay has as its target TGFβRI kinase ALK5 (Homo sapiens (Human), UniProt P36897). Briefly: Inhibition of TGFβRI kinase ALK5 activity (ADP-Glo kit). The class given is biochemical. To be noted: ATP 50 μM, 27° C. 2.5 hours. The protocol:
The inhibition effect of TGFβRI kinase activity in vitro was determined by the following method.
The inhibition effect of the compounds of the present invention on TGFβRI kinase ALK5 activity was determined by the following experimental method:
TGFβRI kinase assay kit (V4093, Promega) was used to assay enzyme activity. 2 μl of enzyme solution (the final concentration of enzyme in the reaction system was 2 ng/μL) formulated with reaction buffer (40 mM Tris pH 7.5, 20 mM MgCl2, 0.1 mg/ml BSA), 1 μl of a 3-fold gradient dilution of the compounds dissolved in 5% DMSO, and 2 μl of a mixed solution of ATP and TGFβRI substrate peptide (the final concentration of ATP was 50 μM, and the final concentration of substrate was 0.2 μg/μL) were added successively to a 384-well plate (4514, Corning). After reaction at 27° C. for 2.5 hours, 5 μl of ADP-Glo solution in the kit was added to each well, then the plate was placed at 27° C. for 40 minutes. 10 μl of kinase assay reagent was then added to each well, then the plate was placed at 27° C. for 30 minutes. The chemiluminescence signal values were measured with a Victor 3 (PerkinElmer) multi-function microplate reader. The IC50 values of the compounds for enzyme inhibition were calculated using Graphpad prism software based on each concentration of the compound and the corresponding signal value thereof.
(ADP-Glo first removes unused ATP, then detects ADP through luciferase.)

Molecules are shown by their SMILES.

The results in this text go back to patent publication US10899741B2, “3,4-bipyridyl pyrazole derivative, and preparation method therefor and medical application thereof” (Jiangsu Hengrui Medicine Co., Ltd., priority 2016, dated 2021).

TGFβRI kinase ALK5, sequence (P36897 34-503): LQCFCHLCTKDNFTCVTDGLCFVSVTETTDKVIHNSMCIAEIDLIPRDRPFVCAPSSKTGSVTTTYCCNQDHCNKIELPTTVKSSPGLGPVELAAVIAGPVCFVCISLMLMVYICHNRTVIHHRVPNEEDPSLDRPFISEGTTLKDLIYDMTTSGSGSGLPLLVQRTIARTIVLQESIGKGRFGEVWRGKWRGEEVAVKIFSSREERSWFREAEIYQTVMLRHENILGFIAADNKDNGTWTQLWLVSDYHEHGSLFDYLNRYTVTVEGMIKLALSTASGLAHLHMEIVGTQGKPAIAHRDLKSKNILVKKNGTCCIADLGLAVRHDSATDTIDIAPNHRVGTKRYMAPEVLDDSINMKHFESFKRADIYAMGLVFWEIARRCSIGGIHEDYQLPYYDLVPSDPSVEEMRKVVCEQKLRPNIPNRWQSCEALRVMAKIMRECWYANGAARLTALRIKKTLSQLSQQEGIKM

For `Cc1cccc(-c2nn([C@@H]3CCN(S(C)(=O)=O)C3)cc2-c2ccnc(-c3ccc(S(C)(=O)=O)cc3)c2)n1` [Example 8, (R)-4-(3-(6-Methylpyridin-2-yl)-1-(1-(methylsulfonyl)pyrrolidin-3-yl)-1H-pyrazol-4-yl)-2-(4-(methylsulfonyl)phenyl)pyridine], the entries for the “Maximum inhibition rate (%)” value (in assay [1]; in the assay with NIH3T3 cell) were 98% and 114%, respectively. For the same compound, the results for the IC50 (in assay [1]; in the assay on NIH3T3 cell; on TGFβRI kinase ALK5) were 0.218 µM, 0.49 µM and 0.37 µM, respectively.
In the case of `Cc1cccc(-c2nn(C3CC3)cc2-c2ccnc(-c3ccc(C#N)cc3)c2)n1` [Example 7, 4-(4-(1-Cyclopropyl-3-(6-methylpyridin-2-yl)-1H-pyrazol-4-yl)pyridin-2-yl)benzonitrile], in assay [1], the “Maximum inhibition rate (%)” value came to 98% and the IC50 was 0.168 µM.
Consider `Cc1cccc(-c2nn(C3CCCC3)cc2-c2ccnc(-c3ccc(S(C)(=O)=O)cc3)c2)n1` [Example 3, 4-(1-Cyclopentyl-3-(6-methylpyridin-2-yl)-1H-pyrazol-4-yl)-2-(4-(methylsulfonyl)phenyl)pyridine], for which the “Maximum inhibition rate (%)” value amounted to 101% in assay [1] and 105% in the assay on NIH3T3 cell. The IC50 is 0.057 µM in assay [1], 0.366 µM in the assay with NIH3T3 cell and 0.241 µM against TGFβRI kinase ALK5.

By IC50 is commonly meant the concentration needed to halve the response being measured. Higher therefore signals lower potency.
